Experimental data taken from patent publication US20240309018A1, “THIAZOLE-LACTAM-SPIROHETEROCYCLIC COMPOUNDS AND APPLICATIONS THEREOF” (D3 BIO (WUXI) CO., LTD, priority 2021, published 2024).

Experiments:
[1] = Hygroscopicity study (DVS); assay type: physicochemical; settings: 25° C. and 80% RH
Description: Dynamic vapor adsorption (DVS) curves were collected on DVS Intrinsic plus of Surface Measurement Systems (SMS) company. The relative humidity at 25° C. was corrected with the deliquescent points of LiCl, Mg(NO3)2 and KCl.
[…]

[2] = Solid stability test of the crystal form; assay type: physicochemical
Description: The sample was placed at the bottom of an HPLC vial to form a thin layer. The samples were placed in a chamber at a constant temperature and humidity of 60° C./75% RH conditions and in a 92.5% RH desiccator. The bottles were sealed with a sealing film. Some small holes were punched in the sealing film to ensure that the samples were fully in contact with the ambient air. The caps of the sample bottles placed at 60° C. under light and light-shielding conditions (samples under light-shielding conditions were wrapped in tin foil) were tighten.

Cc1cccc(CN2C(=O)c3nc(-c4nc(Nc5ccnn5C)ncc4C)sc3C23COC3)n1 [crystal form A of WX001]
almost no hygroscopicity: hygroscopicity classification [1]
good stability: solid stability, conclusion ([2]; all conditions of Table 15)
0.1134%: ΔW, weight increase by moisture absorption ([1]; DVS)
Crystal form A: Crystal form ([2]; 0 day) | Crystal form ([2]; 60° C., 5 days) | Crystal form ([2]; 60° C., 10 days) | Crystal form ([2]; 60° C./75% RH, 1 month) | Crystal form ([2]; 60° C./75% RH, 2 months) | Crystal form ([2]; 60° C./75% RH, 3 months) | Crystal form ([2]; 92.5% RH, 5 days) | Crystal form ([2]; 92.5% RH, 10 days) | Crystal form ([2]; Control group of light-shielding, taking points simultaneously with visible light + UV group) | Crystal form ([2]; Control group of light-shielding, taking points simultaneously with visible light group) | Crystal form ([2]; Visible light (ICH conditions), reaching illumination of 1.2E+06 Lux · hrs) | Crystal form ([2]; Visible light + UV (ICH conditions), reaching illumination of 200 W · hrs/m^2)
